Source: ChEMBL document CHEMBL4364344, “Design, synthesis and evaluation of activity and pharmacokinetic profile of new derivatives of xanthone and piperazine in the central nervous system” (Bioorg Med Chem Lett, 2019)

Experiments:
[1] = target: Vasoactive intestinal polypeptide receptor 1 (Homo sapiens) (UniProt P32241); test: Displacement of [125I]VIP recombinant human VPAC1 receptor at 10 uM after 120 mins by radiometric scintillation analysis relative to control
[2] = Mutagenicity in Salmonella typhimurium TA102 at 50 ug/plate preincubated for 20 mins followed by addition of top agar and measured after 48 hrs by Ames test; type: toxicity; conditions: salmonella enterica subsp. enterica serovar typhimurium
[3] = target: 5-hydroxytryptamine receptor 2A (Homo sapiens, UniProt P28223); test: Displacement of [3H]ketanserin from recombinant human 5-HT2A receptor at 10 uM after 60 mins by radiometric scintillation analysis relative to control
Chain of 5-hydroxytryptamine receptor 2A (P28223 whole entry): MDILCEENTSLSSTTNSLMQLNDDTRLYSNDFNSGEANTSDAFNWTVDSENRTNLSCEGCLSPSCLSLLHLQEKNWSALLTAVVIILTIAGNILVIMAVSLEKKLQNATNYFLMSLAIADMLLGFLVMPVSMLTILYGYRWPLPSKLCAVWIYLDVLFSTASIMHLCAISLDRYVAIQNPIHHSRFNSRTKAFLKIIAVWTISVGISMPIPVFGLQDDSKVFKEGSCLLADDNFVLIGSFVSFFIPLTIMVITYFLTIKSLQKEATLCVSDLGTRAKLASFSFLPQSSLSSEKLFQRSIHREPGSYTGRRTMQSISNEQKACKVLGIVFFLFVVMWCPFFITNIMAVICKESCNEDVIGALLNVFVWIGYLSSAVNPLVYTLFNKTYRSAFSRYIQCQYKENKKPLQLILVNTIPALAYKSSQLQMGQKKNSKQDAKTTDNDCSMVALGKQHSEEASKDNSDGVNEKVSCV

[4] = target: Adrenergic receptor alpha-2 (Rattus norvegicus) (UniProt P22086+P19328+P22909); test: Displacement of [3H]RX 821002 from rat brain alpha 2 receptor at 10 uM after 60 mins by radiometric scintillation analysis relative to control
[5] = target: Substance-K receptor (Homo sapiens) (UniProt P21452); test: Displacement of [125I]NKA from recombinant human NK2 receptor at 10 uM after 60 mins by radiometric scintillation analysis relative to control
[6] = target: 5-hydroxytryptamine receptor 1A (Homo sapiens) (UniProt P08908); test: Displacement of [3H]8-OH-DPAT from recombinant human 5-HT1A receptor at 10 uM after 60 mins by radiometric scintillation analysis relative to control
[7] = Mutagenicity in Salmonella typhimurium TA100 at 50 ug/plate preincubated for 20 mins followed by addition of top agar and measured after 48 hrs by Ames test; type: toxicity; conditions: salmonella enterica subsp. enterica serovar typhimurium
[8] = target: Somatostatin receptor type 4 (Mus musculus) (UniProt P49660); test: Displacement of [125I]Tyr11-somatostatin-14 from mouse SST4 receptor at 10 uM after 120 mins by radiometric scintillation analysis relative to control
Chain of Somatostatin receptor type 4 (Mus musculus) (P49660 as listed by the source): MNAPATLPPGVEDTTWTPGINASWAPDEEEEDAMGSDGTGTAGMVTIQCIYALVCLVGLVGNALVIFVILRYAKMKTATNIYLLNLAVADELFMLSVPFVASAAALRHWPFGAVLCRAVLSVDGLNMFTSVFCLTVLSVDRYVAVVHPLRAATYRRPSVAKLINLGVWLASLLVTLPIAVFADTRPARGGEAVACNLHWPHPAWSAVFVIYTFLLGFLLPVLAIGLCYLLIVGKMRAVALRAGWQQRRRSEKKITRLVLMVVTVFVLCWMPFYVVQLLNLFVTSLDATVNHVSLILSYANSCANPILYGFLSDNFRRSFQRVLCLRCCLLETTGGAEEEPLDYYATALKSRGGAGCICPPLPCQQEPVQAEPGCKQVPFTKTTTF

[9] = target: Beta-1 adrenergic receptor (Homo sapiens) (UniProt P08588); test: Displacement of [3H](-)CGP 12177 from recombinant human beta1 receptor at 10 uM after 60 mins by radiometric scintillation analysis relative to control
[10] = Terminal half life in CD-1 mouse plasma at 5 mg/kg, ip measured up to 480 mins by LC/ESI-MS/MS analysis; type: ADME, organism-based; conditions: read-out: beta t1/2
[11] = target: Sodium-dependent noradrenaline transporter (Homo sapiens) (UniProt P23975); test: Displacement of [3H]nisoxetine recombinant human norepinephrine transporter at 10 uM after 120 mins by radiometric scintillation analysis relative to control
Chain of Sodium-dependent noradrenaline transporter (Homo sapiens) (P23975 whole entry): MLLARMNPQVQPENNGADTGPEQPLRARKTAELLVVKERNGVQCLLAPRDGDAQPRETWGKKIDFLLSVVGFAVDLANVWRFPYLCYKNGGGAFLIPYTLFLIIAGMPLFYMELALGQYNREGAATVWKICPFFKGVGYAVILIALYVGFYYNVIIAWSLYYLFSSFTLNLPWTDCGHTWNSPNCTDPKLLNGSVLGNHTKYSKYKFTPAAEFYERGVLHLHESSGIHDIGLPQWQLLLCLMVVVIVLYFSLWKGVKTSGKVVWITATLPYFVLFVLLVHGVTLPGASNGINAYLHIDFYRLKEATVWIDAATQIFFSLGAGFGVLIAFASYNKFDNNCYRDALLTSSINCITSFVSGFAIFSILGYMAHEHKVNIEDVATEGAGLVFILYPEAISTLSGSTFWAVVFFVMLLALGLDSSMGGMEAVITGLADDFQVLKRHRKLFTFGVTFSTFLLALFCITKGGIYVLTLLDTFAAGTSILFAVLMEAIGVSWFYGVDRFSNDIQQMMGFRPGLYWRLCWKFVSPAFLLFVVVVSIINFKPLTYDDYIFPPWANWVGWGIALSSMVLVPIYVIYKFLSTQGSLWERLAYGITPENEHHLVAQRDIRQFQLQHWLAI

Rattus norvegicus [12] = species: Rattus norvegicus; test: Displacement of [3H]batrachotoxinin from rat brain sodium channel site 2 at 10 uM after 60 mins by scintillation counting analysis relative to control relative to control
[13] = target: Vasopressin V1a receptor (Homo sapiens) (UniProt P37288); test: Displacement of [3H]AVP recombinant human V1A receptor at 10 uM after 60 mins by radiometric scintillation analysis relative to control
Rattus norvegicus [14] = species: Rattus norvegicus; test: Displacement of [125I]alpha-dendrotoxin rat brain voltage-gated potassium channel at 10 uM after 60 mins by radiometric scintillation analysis relative to control
[15] = target: Neuromedin-K receptor (Homo sapiens) (UniProt P29371); test: Displacement of [3H]SR 142801 from recombinant human NK3 receptor at 10 uM after 120 mins by radiometric scintillation analysis relative to control
[16] = target: Endothelin-1 receptor (Homo sapiens) (UniProt P25101); test: Displacement of [125I]endothelin-1 from recombinant human ETA receptor at 10 uM after 120 mins by radiometric scintillation analysis relative to control
Chain of Endothelin-1 receptor (Homo sapiens) (P25101 whole entry): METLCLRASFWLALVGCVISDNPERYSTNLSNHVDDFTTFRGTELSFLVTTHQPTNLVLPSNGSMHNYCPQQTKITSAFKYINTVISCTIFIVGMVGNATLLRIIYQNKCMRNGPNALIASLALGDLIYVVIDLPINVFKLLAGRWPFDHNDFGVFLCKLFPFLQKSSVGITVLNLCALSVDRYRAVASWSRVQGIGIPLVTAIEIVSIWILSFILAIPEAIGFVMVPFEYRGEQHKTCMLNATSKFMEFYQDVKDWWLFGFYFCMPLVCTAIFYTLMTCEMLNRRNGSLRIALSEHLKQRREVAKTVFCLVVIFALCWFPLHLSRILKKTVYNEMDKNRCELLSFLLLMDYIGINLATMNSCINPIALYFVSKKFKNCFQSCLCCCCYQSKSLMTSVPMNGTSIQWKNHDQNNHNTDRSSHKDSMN

[17] = Apparent clearance in CD-1 mouse plasma at 5 mg/kg, ip measured up to 480 mins by LC/ESI-MS/MS analysis; type: ADME, organism-based
[18] = target: Neuropeptide Y receptor type 1 (Homo sapiens) (UniProt P25929); test: Displacement of [125I]peptide YY from human Y1 receptor at 10 uM after 120 mins by radiometric scintillation analysis relative to control
Chain of Neuropeptide Y receptor type 1 (Homo sapiens) (P25929 whole entry): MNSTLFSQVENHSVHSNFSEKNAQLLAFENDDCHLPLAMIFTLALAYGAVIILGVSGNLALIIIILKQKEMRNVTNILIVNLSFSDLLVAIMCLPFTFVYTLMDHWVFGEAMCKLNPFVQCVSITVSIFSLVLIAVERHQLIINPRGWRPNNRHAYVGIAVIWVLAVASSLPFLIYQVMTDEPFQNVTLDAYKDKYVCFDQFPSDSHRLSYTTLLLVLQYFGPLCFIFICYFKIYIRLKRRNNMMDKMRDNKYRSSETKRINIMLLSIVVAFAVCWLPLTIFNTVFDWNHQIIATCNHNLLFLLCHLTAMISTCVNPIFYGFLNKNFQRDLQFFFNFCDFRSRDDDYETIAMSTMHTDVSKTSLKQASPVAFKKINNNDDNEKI

[19] = target: Adenosine receptor A2a (Homo sapiens) (UniProt P29274); test: Displacement of [3H]CGS 21680 from recombinant human A2A receptor at 10 uM after 120 mins by radiometric scintillation analysis relative to control
[20] = Mutagenicity in Salmonella typhimurium TA100 at 100 ug/plate preincubated for 20 mins followed by addition of top agar and measured after 48 hrs by Ames test; type: toxicity; conditions: salmonella enterica subsp. enterica serovar typhimurium
[21] = Mutagenicity in Salmonella typhimurium TA102 at 250 ug/plate preincubated for 20 mins followed by addition of top agar and measured after 48 hrs by Ames test; type: toxicity; conditions: salmonella enterica subsp. enterica serovar typhimurium
[22] = target: Kappa-type opioid receptor (Homo sapiens) (UniProt P41145); test: Displacement of [3H]U69593 from human KOR receptor at 10 uM after 60 mins by radiometric scintillation analysis relative to control
[23] = target: Serotonin 2 (5-HT2) receptor (Rattus norvegicus) (UniProt P30994+P08909+P14842); test: Displacement of [3H]ketanserin from 5-HT2 receptor in Wistar rat brain cortex membrane at 10 uM after 40 mins by scintillation counting analysis relative to control; type: cell membranes
Chain of Serotonin 2 (5-HT2) receptor (Rattus norvegicus) (P08909 whole entry, looked up): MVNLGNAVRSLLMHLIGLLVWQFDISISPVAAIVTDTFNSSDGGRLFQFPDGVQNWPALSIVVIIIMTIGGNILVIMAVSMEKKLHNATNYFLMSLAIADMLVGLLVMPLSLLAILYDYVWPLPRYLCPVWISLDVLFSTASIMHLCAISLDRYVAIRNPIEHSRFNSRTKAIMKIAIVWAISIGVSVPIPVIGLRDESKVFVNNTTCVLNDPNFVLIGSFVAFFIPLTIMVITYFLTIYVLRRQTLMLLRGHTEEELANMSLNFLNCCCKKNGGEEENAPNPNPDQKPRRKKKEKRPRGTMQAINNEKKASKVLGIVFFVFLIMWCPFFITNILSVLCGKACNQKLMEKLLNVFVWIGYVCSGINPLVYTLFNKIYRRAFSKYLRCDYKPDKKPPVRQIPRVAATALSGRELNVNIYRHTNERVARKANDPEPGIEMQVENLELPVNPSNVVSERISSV
Chain of Serotonin 2 (5-HT2) receptor (Rattus norvegicus) (P14842 whole entry, looked up): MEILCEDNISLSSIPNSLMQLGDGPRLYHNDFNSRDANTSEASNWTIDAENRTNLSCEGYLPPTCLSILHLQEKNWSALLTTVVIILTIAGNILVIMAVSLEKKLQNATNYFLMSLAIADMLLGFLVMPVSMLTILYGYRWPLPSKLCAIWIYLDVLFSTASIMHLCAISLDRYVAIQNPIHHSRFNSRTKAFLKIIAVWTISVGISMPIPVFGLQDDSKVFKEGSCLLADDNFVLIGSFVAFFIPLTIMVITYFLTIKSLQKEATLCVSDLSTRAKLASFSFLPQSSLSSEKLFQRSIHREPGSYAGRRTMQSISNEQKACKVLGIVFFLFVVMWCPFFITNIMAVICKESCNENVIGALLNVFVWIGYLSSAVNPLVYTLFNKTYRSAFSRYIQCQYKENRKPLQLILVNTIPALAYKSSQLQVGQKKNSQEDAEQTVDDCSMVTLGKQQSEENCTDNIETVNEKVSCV
Chain of Serotonin 2 (5-HT2) receptor (Rattus norvegicus) (P30994 whole entry, looked up): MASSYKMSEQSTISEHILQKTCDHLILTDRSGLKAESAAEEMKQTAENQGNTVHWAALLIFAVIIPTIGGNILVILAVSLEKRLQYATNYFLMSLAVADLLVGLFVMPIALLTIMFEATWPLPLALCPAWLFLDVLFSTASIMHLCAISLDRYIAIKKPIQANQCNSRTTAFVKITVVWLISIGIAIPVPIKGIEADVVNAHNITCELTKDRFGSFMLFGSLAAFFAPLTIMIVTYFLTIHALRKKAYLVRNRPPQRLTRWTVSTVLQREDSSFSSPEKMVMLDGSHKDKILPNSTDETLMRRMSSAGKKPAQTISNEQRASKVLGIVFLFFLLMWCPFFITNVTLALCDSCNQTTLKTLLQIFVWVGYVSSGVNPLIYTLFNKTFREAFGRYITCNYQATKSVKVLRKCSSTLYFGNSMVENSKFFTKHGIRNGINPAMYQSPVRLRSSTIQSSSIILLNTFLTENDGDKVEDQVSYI

[24] = target: Delta-type opioid receptor (Homo sapiens) (UniProt P41143); test: Displacement of [3H]DADLE from recombinant human DOR receptor at 10 uM after 60 mins by radiometric scintillation analysis relative to control
Chain of Delta-type opioid receptor (Homo sapiens) (P41143 whole entry): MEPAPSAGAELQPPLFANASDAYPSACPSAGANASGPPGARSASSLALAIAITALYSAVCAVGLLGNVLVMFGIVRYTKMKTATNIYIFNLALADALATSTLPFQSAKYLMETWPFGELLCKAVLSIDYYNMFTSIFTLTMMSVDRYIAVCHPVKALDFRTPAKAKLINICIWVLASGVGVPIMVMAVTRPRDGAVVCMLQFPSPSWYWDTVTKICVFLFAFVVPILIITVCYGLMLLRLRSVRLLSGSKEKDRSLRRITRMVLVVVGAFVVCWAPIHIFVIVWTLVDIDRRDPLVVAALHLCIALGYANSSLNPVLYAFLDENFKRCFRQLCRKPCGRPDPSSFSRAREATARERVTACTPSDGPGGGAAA

[25] = target: C-X-C chemokine receptor type 2 (Homo sapiens) (UniProt P25025); test: Displacement of [125I]IL-8 from recombinant human CXCR2 at 10 uM after 60 mins by radiometric scintillation analysis relative to control
Chain of C-X-C chemokine receptor type 2 (Homo sapiens) (P25025 whole entry): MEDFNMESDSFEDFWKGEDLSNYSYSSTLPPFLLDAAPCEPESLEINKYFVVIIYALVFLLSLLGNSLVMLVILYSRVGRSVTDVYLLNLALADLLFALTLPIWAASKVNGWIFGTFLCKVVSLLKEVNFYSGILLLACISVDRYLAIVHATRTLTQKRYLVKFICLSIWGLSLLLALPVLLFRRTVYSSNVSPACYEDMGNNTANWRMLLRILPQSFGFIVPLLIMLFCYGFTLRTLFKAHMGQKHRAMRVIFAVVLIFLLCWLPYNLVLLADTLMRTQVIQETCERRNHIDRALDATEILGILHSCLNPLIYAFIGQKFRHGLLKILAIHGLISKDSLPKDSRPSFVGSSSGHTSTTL

[26] = Tmax in CD-1 mouse plasma at 5 mg/kg, ip measured up to 480 mins by LC/ESI-MS/MS analysis; type: ADME, organism-based
Rattus norvegicus [27] = species: Rattus norvegicus; test: Displacement of [3H]-Flumazenil from GABAA/BZD receptor in rat cortical membranes incubated for 60 mins by radioligand binding assay relative to control; type: cell membranes
Rattus norvegicus [28] = species: Rattus norvegicus; test: Displacement of [3H] TBPS from rat GABA gated chloride channel at 10 uM measured after 120 mins by scintillation counter method relative to control relative to control
[29] = target: Adrenergic receptor alpha-1 (Rattus norvegicus) (UniProt P15823+P23944+P43140); test: Displacement of [3H]prazosin from rat brain alpha 1 receptor at 10 uM after 60 mins by radiometric scintillation analysis relative to control
[30] = Apparent volume of distribution in CD-1 mouse plasma at 5 mg/kg, ip measured up to 480 mins by LC/ESI-MS/MS analysis; type: ADME, organism-based
[31] = target: D(1A) dopamine receptor (Homo sapiens) (UniProt P21728); test: Displacement of [3H]SCH 23390 from recombinant human D1 dopamine receptor at 10 uM after 60 mins by radiometric scintillation analysis relative to control
Chain of D(1A) dopamine receptor (Homo sapiens) (P21728 whole entry): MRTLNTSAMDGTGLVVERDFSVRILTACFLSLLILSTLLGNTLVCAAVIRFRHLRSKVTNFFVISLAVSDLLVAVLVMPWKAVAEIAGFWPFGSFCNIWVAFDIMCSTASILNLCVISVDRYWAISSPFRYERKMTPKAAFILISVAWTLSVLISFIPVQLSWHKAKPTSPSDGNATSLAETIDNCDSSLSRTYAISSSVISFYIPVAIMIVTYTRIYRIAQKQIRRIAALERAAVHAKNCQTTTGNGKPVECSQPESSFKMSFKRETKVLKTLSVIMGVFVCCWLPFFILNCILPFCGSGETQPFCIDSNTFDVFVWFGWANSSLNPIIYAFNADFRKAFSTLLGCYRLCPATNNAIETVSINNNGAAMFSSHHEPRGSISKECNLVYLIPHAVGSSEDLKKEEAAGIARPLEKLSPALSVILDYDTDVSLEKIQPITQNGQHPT

[32] = AUC (0 to total) in CD-1 mouse brain at 5 mg/kg, ip measured up to 480 mins by LC/ESI-MS/MS analysis; type: ADME, organism-based; conditions: in vivo, 8 h

Cl.Cl.O=c1c2cc(Cl)ccc2oc2ccc(CN3CCN(CCOCCO)CC3)cc12
inhibition [1]: -1.2% | Activity_index [2]: 0.78 | inhibition [3]: 62.8% | inhibition [4]: 9.2% | inhibition [5]: 49.4% | inhibition [6]: -2.6% | Activity_index [7]: 0.64 | inhibition [8]: -2.9% | inhibition [9]: 2.3% | half-life [10]: 2.89 h | inhibition [11]: 43.1% | inhibition (Rattus norvegicus [12]): 78.7% | inhibition [13]: -0.2% | inhibition (Rattus norvegicus [14]): -3.1% | inhibition [15]: 3.2% | inhibition [16]: 4.9% | CL/F [17]: 12.2 mL/min/kg | inhibition [18]: -9.5% | inhibition [19]: 12.2% | Activity_index [20]: 0.45 | Activity_index [21]: 1.28 | inhibition [22]: 12.2% | inhibition [23]: 47% | inhibition [24]: 27.1% | inhibition [25]: 19.8% | Tmax [26]: 0.25 h | inhibition (Rattus norvegicus [27]): 9.4% | inhibition (Rattus norvegicus [28]): 5% | inhibition [29]: 8.5% | Vd/F [30]: 3.06 L/kg | inhibition [31]: 8.9% | AUCt [32]: 3227321 ng·min/g
